In patent US20260118357A1, “TETRA-FUNCTIONAL CHEMICAL PROBE AND METHOD FOR IDENTIFYING TARGET MEMBRANE PROTEIN FROM LIVING CELL OR LIVING TISSUE BY USING SAID PROBE” (priority 2019, published 2026):

Legend:
Type in all cases: cell-based
[1] = tested on: GABA receptor subunits (Gabra1, Gabra2, Gabra5, Gabrg2); assay: Isolation and detection of target molecule from living tissue (brain slices) using the probe, LC-MS; conditions: DBA/2CrSlc mouse brain slices, CPF-202 302 nm UV 1 minute, CPF-242 365 nm UV 15 minutes, FIGS. 3 and 4
Description: (§1) A DBA/2CrSlc mouse was anesthetized by isoflurane inhalation and then decapitated, and the brain was quickly removed. The removed brain was immersed in artificial cerebrospinal fluid (ACSF) at 0° C. for 60 seconds while being continuously bubbled with a gas mixture (95% O2, 5% CO2). The olfactory bulb and cerebellum were removed with a scalpel, and the brain was fixed to the stage of a vibrating blade microtome (Leica, VT1200) using instant glue. Sliced sections (thin sections having a thickness of 0.3 mm) of the brain containing the striatum and hippocampus were prepared in ACSF at 0° C. continuously bubbled with the gas mixture. The sliced sections were placed in a dish containing artificial cerebrospinal fluid. An unmodified ligand or DMSO was added, and the dish was allowed to stand at room temperature for 5 minutes. Subsequently, compound (CPF-224) produced in Production Example 10 or compound (CPF-202) produced in Production Example 8 was added, and the dish was allowed to stand at room temperature for 30 minutes. The solution was removed, and the sliced sections were irradiated with UV light (in the cases of CPF-224 and CPF-202, 302 nm UV light for 1 minute; in the case of CPF242, 365 nm UV light for 15 minutes). The sliced sections were washed and collected with PBS, and the supernatant was removed by centrifugation (3000×g, 4° C., 5 minutes). The obtained pellets were analyzed by the same method as in Test Example 1. The analysis was performed in two independent tests, and the results can be expressed as a ratio relative to those in the group treated with the unmodified ligand.

[2] = tested on: AMPA-type glutamate receptors (Gria1, Gria2, Gria3, Gria4); assay: as above; conditions: DBA/2CrSlc mouse brain slices, 302 nm UV 1 minute, two independent tests, FIG. 2
Description: as §1

[3] = biological target: T1, human dopamine receptor D2 (DRD2) (Homo sapiens, UniProt P14416); assay: Isolation and detection of target molecule from living cells using the probe (UV crosslinking, streptavidin enrichment, LC-MS); conditions: CHO-K1 cells stably expressing human DRD2; 302 nm UV 1 minute; LC-MS LFQ; two independent tests; FIG. 1
T1 construct: expressed in transfected cells; host or cells: CHO-K1
Description: CHO-K1 cells stably expressing human dopamine receptor D2 (DRD2) were cultured on a 10-cm plate until they became confluent.
The cells were washed with a medium, and the medium was replaced with a medium containing DMSO or an unmodified ligand, followed by a reaction for 30 minutes. Subsequently, the medium was discarded and replaced with a medium containing compound (CPP-127) synthesized in Production Example 12, and the cells were allowed to stand at 37° C. for 30 minutes. The medium was discarded, and the cells were washed with PBS. PBS (1 ml) was added to the cells on the plate, and then the cells were irradiated with 302 nm UV light for 1 minute using a UV crosslinker. The cells were collected with a cell scraper after UV irradiation, and the collected cell pellets were cryopreserved at −80° C.
The cryopreserved cells were suspended in 50 mM Tris Homogenate Buffer (pH 7.4, 2.5 mM EDTA, 5 mM MgCl2, 320 mM sucrose) and homogenized using a sonicator. […]
The obtained tryptic digest was desalted and purified, and protein analysis was performed by LC-MS. […] A full scan MS spectrum was acquired in the m/z range of 380 to 1600, and a product ion spectrum was measured in data dependent acquisition mode. The data obtained by LC-MS were analyzed by Proteome Discoverer 2.2 analysis software (PD 2.2, Thermo Fisher Scientific). […]

T1 sequence (P14416 whole entry): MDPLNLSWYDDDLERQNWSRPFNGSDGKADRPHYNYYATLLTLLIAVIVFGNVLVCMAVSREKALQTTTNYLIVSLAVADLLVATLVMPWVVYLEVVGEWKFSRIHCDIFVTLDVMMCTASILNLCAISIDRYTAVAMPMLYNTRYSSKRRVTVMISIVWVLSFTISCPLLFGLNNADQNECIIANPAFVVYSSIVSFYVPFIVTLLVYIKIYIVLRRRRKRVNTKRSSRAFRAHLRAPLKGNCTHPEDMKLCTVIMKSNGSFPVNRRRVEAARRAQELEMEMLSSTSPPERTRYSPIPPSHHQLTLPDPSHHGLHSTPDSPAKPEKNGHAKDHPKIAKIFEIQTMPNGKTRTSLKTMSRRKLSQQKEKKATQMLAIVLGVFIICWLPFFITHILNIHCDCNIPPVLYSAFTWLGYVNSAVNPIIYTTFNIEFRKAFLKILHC

Row | SMILES | detection of GABA receptor subunits compared with the group treated with the unmodified ligand [1] | other results
1 | CC1(C)CC(=O)C(=C(CCOCCOCCOCCOCCNC(=O)CCCC[C@@H]2SC[C@@H]3NC(=O)N[C@@H]32)NCCCC(=O)Nc2ccc(-n3nnc(C(=O)NCCCN4C(=O)CN=C(c5ccccc5)c5cc(Cl)ccc54)n3)cc2)C(=O)C1 [CPF-202] | specifically collected | 
2 | CC1(C)CC(=O)C(=C(CCOCCOCCOCCOCCNC(=O)CCCC[C@@H]2SC[C@@H]3NC(=O)N[C@@H]32)NCCCC(=O)Nc2ccc(-n3nnc(C(=O)NCc4ccn(-c5cc6c(cc5C(F)(F)F)[nH]c(=O)c(=O)n6CC(=O)O)c4)n3)cc2)C(=O)C1 [CPF-224] |  | detection of AMPA-type glutamate receptors compared with the group treated with the unmodified ligand [2]: specifically collected
3 | CC1(C)CC(=O)C(=C(CCOCCOCCOCCOCCNC(=O)CCCC[C@@H]2SC[C@@H]3NC(=O)N[C@@H]32)NCCCCCNC(=O)CCC2(CCC(=O)NCCCN3C(=O)CN=C(c4ccccc4)c4cc(Cl)ccc43)N=N2)C(=O)C1 [CPF-242] | specifically collected | 
4 | CC1(C)CC(=O)C(=C(CCOCCOCCOCCOCCNC(=O)CCCC[C@@H]2SC[C@@H]3NC(=O)N[C@@H]32)NCCCC(=O)Nc2ccc(-n3nnc(C(=O)NCCCCC(=O)NCCCN4CCc5ccc(OCCCN6CCN(c7cccc8sccc78)CC6)cc5C4=O)n3)cc2)C(=O)C1 [CPP-127] |  | detection of dopamine receptor D2 compared with the group treated with the unmodified ligand [3]: specifically collected
